Measured values as given in patent US7759351B2, “Oxazolidinone compounds, and compositions and methods related thereto” (Ferrer Internacional, S.A., priority 2005, dated 2010).
≈ marks a conversion by molar mass, not a printed value. Like-named read-outs stand apart in the source and are kept apart here.

Columns and labels:
human MAO-A = biological target: T1, human MAO-A (Homo sapiens, UniProt P21397); assay: In vitro MAO-A enzymatic activity (kynuramine substrate, fluorescence); assay type: biochemical; conditions: compound at 10 μM
T1 construct: purchased Gentest, BD, USA; host or cells: SF9 insect cells (membranes)
T1 sequence (P21397 1-527): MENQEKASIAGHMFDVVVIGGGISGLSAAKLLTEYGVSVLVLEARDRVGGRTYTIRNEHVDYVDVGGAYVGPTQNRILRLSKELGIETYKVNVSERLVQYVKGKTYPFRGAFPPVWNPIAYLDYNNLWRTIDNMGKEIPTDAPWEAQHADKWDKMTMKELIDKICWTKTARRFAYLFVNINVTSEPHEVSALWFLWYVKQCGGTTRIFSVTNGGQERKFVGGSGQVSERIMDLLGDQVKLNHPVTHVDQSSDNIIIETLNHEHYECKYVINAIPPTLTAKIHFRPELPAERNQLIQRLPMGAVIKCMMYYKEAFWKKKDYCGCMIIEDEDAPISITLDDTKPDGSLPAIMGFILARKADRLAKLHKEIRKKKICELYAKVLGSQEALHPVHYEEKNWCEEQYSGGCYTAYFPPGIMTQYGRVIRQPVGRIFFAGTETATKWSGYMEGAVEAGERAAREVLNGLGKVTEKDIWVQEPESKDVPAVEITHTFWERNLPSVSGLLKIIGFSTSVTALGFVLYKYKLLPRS

[1] = tested on: S. aureus ATCC 25923 MS 319; assay: MIC, standard microdilution method (NCCLS M7-A5); assay type: cell-based, Staphylococcus aureus; conditions: for MIC: Staphylococcus aureus, ATCC25923, read-out: In vitro activities against bacteria, MIC
[2] = tested on: S. aureus ATCC 43300 MR 214; assay: MIC, standard microdilution method (NCCLS M7-A5); assay type: cell-based, Staphylococcus aureus; conditions: for MIC: Staphylococcus aureus, ATCC43300, read-out: In vitro activities against bacteria, MIC
human MAO-B = biological target: T2, human MAO-B (Homo sapiens, UniProt P27338); assay: In vitro MAO-B enzymatic activity (kynuramine substrate, fluorescence); assay type: biochemical; conditions: human MAO-B, compound at 1 μM
T2 construct: purchased Gentest, BD, USA; host or cells: SF9 insect cells (membranes)
T2 sequence (P27338 1-520): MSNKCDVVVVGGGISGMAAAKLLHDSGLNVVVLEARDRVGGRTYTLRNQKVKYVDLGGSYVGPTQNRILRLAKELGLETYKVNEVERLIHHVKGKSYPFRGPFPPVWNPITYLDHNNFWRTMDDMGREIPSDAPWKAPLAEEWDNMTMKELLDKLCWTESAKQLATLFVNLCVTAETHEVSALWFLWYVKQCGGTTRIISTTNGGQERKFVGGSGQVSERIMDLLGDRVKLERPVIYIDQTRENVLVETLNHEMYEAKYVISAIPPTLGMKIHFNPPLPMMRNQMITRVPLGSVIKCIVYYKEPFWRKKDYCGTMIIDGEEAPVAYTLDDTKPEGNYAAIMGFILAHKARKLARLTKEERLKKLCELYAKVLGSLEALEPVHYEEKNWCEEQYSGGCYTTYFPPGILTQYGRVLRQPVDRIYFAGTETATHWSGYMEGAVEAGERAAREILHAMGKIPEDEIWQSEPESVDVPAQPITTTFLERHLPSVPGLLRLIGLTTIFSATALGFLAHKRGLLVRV

[3] = tested on: S. epidermidis ATCC 12228 MR 11; assay: microbe, parasite or virus in culture; assay type: cell-based, Staphylococcus epidermidis; conditions: for MIC: Staphylococcus epidermidis, ATCC12228, read-out: In vitro activities against bacteria, MIC
[4] = tested on: S. pneumoniae ATCC 49619 PR 215; assay: MIC, standard microdilution method (NCCLS M7-A5); assay type: cell-based, Streptococcus pneumoniae; conditions: for MIC: Streptococcus pneumoniae, ATCC49619, read-out: In vitro activities against bacteria, MIC
Enterococcus = assay: Selective activity: geometric mean MIC in Enterococcus; assay type: cell-based; conditions: geometric mean over Enterococcus strains
Staphylococcus = assay: Selective activity: geometric mean MIC in Staphylococcus; assay type: cell-based; conditions: for Geometric Mean MIC Staphylococcus / MIC: geometric mean over Staphylococcus strains; for Selectivity Enterococcus/Staphylococcus: ratio of geometric mean MIC Enterococcus to geometric mean MIC Staphylococcus
[5] = tested on: Moxorella, Pasteurella and Bacteroides spp.; conditions: background literature; cited from earlier work
[6] = S. pneumoniae ATCC 49619 PR 215
[7] = S. epidermidis ATCC 12228 MR 11
[8] = listed as Comparartive Example 1

SMILES: COc1ccc2cc(C(=O)NC[C@H]3CN(c4ccc(N5CCN(C(=O)c6cccnc6)CC5)c(F)c4)C(=O)O3)c(C)nc2c1 [Ex. 42]
- MAO-A % inh (10 μM) (human MAO-A): 5%
- In vitro activities against bacteria, MIC [1]: 1.00 µg/mL
- In vitro activities against bacteria, MIC [2]: 0.06 µg/mL
- MAO-B % inh (1 μM) (human MAO-B): 7%
- In vitro activities against bacteria, MIC [3]: 0.5 µg/mL
- In vitro activities against bacteria, MIC [4]: 1.00 µg/mL

SMILES: O=C(NC[C@H]1CN(c2ccc(N3CCOCC3)c(F)c2)C(=O)O1)c1cc2cc([N+](=O)[O-])ccc2o1 [Comparative Example 3, reference compound]
- Geometric Mean MIC Enterococcus (Enterococcus): 0.7 µg/mL
- Geometric Mean MIC Staphylococcus (Staphylococcus): 0.8 µg/mL
- Selectivity Enterococcus/Staphylococcus (Staphylococcus): 0.9

SMILES: COc1ccc2cc(C(=O)NC[C@H]3CN(c4ccc(N5CCOCC5)c(F)c4)C(=O)O3)c(C)nc2c1 [Ex. 1, 7-methoxy-2-methyl-N-[[(5S)-3-[3-fluoro-4-(4-morpholinyl)phenyl]-2-oxo-5-oxazolidinyl]methyl]-3-quinolinecarboxamide]
- Geometric Mean MIC Enterococcus (Enterococcus): 5.7 µg/mL
- MIC (Staphylococcus): 0.6 µg/mL (≈ 1.21 µM)
- Selectivity Enterococcus/Staphylococcus (Staphylococcus): 9.5

SMILES: CC(=O)NC[C@H]1CN(c2ccc(N3CCOCC3)c(F)c2)C(=O)O1 [Linezolid, N-[[(5S)-3-[3-fluoro-4-(4-morpholinyl)phenyl]-2-oxo-5-oxazolidinyl]methyl]acetamide, reference compound]
- inhibition at 10 µM (human MAO-A; read-out: MAO-A % inh (10 μM)): 41%
- MIC ([1]; S. aureus ATCC 25923 MS 319): 2 µg/mL (≈ 5.93 µM)
- MIC ([2]; S. aureus ATCC 43300 MR 214): 1 µg/mL (≈ 2.96 µM)
- inhibition at 1 µM (human MAO-B; read-out: MAO-B % inh (1 μM)): 62%
- MIC [5]: 2 to 8 µg/mL
- MIC [3]: 1 µg/mL (≈ 2.96 µM)
- MIC [4, 6]: 2 µg/mL (≈ 5.93 µM)

SMILES: COc1ccc2cc(C(=O)NC[C@H]3CN(c4ccc(N5CCN(C(=O)C6=NNC(=O)CC6)CC5)c(F)c4)C(=O)O3)c(C)nc2c1 [Ex. 29]
- Geometric Mean MIC Enterococcus (Enterococcus): 32 µg/mL
- Geometric Mean MIC Staphylococcus (Staphylococcus): 1.7 µg/mL
- Selectivity Enterococcus/Staphylococcus (Staphylococcus): 18.8

SMILES: COc1ccc2nc(C)c(C(=O)NC[C@H]3CN(c4ccc(N5CCOCC5)c(F)c4)C(=O)O3)cc2c1 [Ex. 18]
- Geometric Mean MIC Enterococcus (Enterococcus): 8 µg/mL
- MIC (Staphylococcus): 1 µg/mL (≈ 2.02 µM)
- Selectivity Enterococcus/Staphylococcus (Staphylococcus): 8.0

SMILES: C=CC(=O)N1CCN(c2ccc(N3C[C@H](CNC(=O)c4cc5ccc(OC)cc5nc4C)OC3=O)cc2F)CC1 [Ex. 24]
- Geometric Mean MIC Enterococcus (Enterococcus): 16 µg/mL
- Geometric Mean MIC Staphylococcus (Staphylococcus): 0.6 µg/mL
- Selectivity Enterococcus/Staphylococcus (Staphylococcus): 27.0

SMILES: COc1ccc2cc(C(=O)NC[C@H]3CN(c4ccc(N5CCN(C(=O)CO)CC5)c(F)c4)C(=O)O3)c(C)nc2c1 [Ex. 35]
- Geometric Mean MIC Enterococcus (Enterococcus): 5.0
- Geometric Mean MIC Staphylococcus (Staphylococcus): 0.6 µg/mL
- Selectivity Enterococcus/Staphylococcus (Staphylococcus): 8.3

SMILES: COc1ccc2cc(C(=O)NC[C@H]3CN(c4ccc(N5CCN(C(=O)C6CC6)CC5)c(F)c4)C(=O)O3)c(C)nc2c1 [Ex. 34]
- MAO-A % inh (10 μM) (human MAO-A): 7%
- In vitro activities against bacteria, MIC ([1]; S. aureus ATCC 25923 MS 319): 0.50 µg/mL
- In vitro activities against bacteria, MIC ([2]; S. aureus ATCC 43300 MR 214): 0.50 µg/mL
- Geometric Mean MIC Enterococcus (Enterococcus): 40.3 µg/mL
- MAO-B % inh (1 μM) (human MAO-B): 8%
- In vitro activities against bacteria, MIC [3, 7]: 0.50 µg/mL
- Geometric Mean MIC Staphylococcus (Staphylococcus): 0.4 µg/mL
- Selectivity Enterococcus/Staphylococcus (Staphylococcus): 100
- In vitro activities against bacteria, MIC [4, 6]: 0.50 µg/mL

SMILES: COc1ccc2cc(C(=O)NC[C@H]3CN(c4ccc(N5CCOCC5)c(F)c4)C(=O)O3)c(C)nc2c1 [compound 1, reference compound]
- Geometric Mean MIC Enterococcus (Enterococcus; [8]): 4.8 µg/mL
- Geometric Mean MIC Staphylococcus (Staphylococcus): 5.7 µg/mL
- Selectivity Enterococcus/Staphylococcus (Staphylococcus; [8]): 0.8

SMILES: COc1ccc2cc(C(=O)NC[C@H]3CN(c4ccc(N5CCS(=O)(=O)CC5)c(F)c4)C(=O)O3)c(C)nc2c1 [Ex. 8, 7-methoxy-2-methyl-N-[[(5S)-3-[3-fluoro-4-(1,1-dioxothiomorpholin-4-yl)-phenyl]-2-oxo-5-oxazolidinyl]methyl]-3-quinolinecarboxamide]
- MIC ([1]; S. aureus ATCC 25923 MS 319): 2 µg/mL (≈ 3.69 µM)
- MIC ([2]; S. aureus ATCC 43300 MR 214): 2 µg/mL (≈ 3.69 µM)
- MIC [3]: 2 µg/mL (≈ 3.69 µM)
- MIC [4, 6]: 1 µg/mL (≈ 1.84 µM)

SMILES: COc1ccc2cc(C(=O)NC[C@H]3CN(c4ccc(N5CCN(C(C)=O)CC5)c(F)c4)C(=O)O3)c(C)nc2c1 [Ex. 3, 7-methoxy-2-methyl-N-[[(5S)-3-[3-fluoro-4-(4′-acetyl-4-piperazinyl)-phenyl]-2-oxo-5-oxazolidinyl]methyl]-3-quinolinecarboxamide]
- Geometric Mean MIC Enterococcus (Enterococcus): 5.7 µg/mL
- MIC (Staphylococcus): 0.4 µg/mL (≈ 0.747 µM)
- Selectivity Enterococcus/Staphylococcus (Staphylococcus): 14.3

SMILES: COc1ccc2cc(C(=O)NC[C@H]3CN(c4ccc(N5CCN(C(=O)c6c[nH]cn6)CC5)c(F)c4)C(=O)O3)c(C)nc2c1 [Ex. 31]
- In vitro activities against bacteria, MIC ([1]; S. aureus ATCC 25923 MS 319): 4.00 µg/mL
- In vitro activities against bacteria, MIC ([2]; S. aureus ATCC 43300 MR 214): 2.00 µg/mL
- In vitro activities against bacteria, MIC [3, 7]: 2.00 µg/mL
- In vitro activities against bacteria, MIC [4, 6]: 4.00 µg/mL

SMILES: O=C(NC[C@H]1CN(c2ccc(N3CCOCC3)c(F)c2)C(=O)O1)c1coc2ccccc12 [Comparative Example 2, reference compound]
- Geometric Mean MIC Enterococcus (Enterococcus): 3.4 µg/mL
- Geometric Mean MIC Staphylococcus (Staphylococcus): 12.7 µg/mL
- Selectivity Enterococcus/Staphylococcus (Staphylococcus): 0.3
